Results as given in US20250302815A1, “PROTEIN TYROSINE PHOSPHATASE TARGETING LIGANDS” (CALICO LIFE SCIENCES LLC, priority 2021, published 2025).

How the values were obtained:
[1] = molecular target: T1, PTPN2 (HiBIT-PTPN2 in 293T.109 cells) (Homo sapiens, UniProt P17706); assay: HiBiT Degradation 293T.109 PTPN2 (Nano-Glo HiBiT Lytic Assay); format: cell-based; conditions: 24.0 hours
T1 construct: expressed in transfected cells; host or cells: 293T.109 (293T WT from ATCC)
T1 sequence (P17706 1-415): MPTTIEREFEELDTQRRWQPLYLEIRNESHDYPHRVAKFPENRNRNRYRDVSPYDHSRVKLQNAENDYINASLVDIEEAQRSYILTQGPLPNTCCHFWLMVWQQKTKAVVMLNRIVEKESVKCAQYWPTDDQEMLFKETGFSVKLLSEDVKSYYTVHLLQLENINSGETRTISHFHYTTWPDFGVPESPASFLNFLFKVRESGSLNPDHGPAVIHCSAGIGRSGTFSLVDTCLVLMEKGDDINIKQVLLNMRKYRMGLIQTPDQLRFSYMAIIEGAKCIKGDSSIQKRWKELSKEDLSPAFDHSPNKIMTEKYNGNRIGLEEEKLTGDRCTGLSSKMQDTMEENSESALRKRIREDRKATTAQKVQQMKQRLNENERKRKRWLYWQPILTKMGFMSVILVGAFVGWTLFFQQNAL
Outline: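 Degradation read-out: lytic HiBiT luminescence after 24 h treatment (37 °C, 5% CO2) of 5000 293T cells per well expressing HiBiT-fused PTPN2 from an N-terminal tag. Dosing was 11 points, half-log steps down from 10 μM, in duplicate; vehicle-treated and no-reagent wells served as controls.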

PTPN2 (B16F10.4 cells) = molecular target: T2, PTPN2 (B16F10.4 cells) (Mus musculus, UniProt Q06180); assay: HiBiT Degradation B16F10.4 PTPN2; format: cell-based; conditions: 24.0 hours
T2 construct: HiBiT; host or cells: B16F10.4
T2 sequence (Q06180 1-406): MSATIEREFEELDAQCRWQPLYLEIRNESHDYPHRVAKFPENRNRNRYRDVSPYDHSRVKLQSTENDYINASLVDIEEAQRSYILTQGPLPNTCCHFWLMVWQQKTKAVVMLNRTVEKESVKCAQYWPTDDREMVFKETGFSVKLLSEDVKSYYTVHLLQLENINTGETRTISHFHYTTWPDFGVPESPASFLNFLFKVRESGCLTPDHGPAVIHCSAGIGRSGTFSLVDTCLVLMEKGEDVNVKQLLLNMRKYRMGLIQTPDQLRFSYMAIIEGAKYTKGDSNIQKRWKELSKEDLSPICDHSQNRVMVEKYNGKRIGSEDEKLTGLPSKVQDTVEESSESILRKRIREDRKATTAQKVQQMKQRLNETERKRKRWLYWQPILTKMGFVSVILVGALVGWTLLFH

Compound: Cn1c(=O)n(C2CCC(=O)NC2=O)c2ccc(C3CCN(C(=O)Nc4cccc(CS(=O)(=O)N5CC[C@H](Nc6cccc(-c7sc(C(=O)O)c(OCC(=O)O)c7Cl)c6)CC5(C)C)c4)CC3)c(F)c21 (stereo partly drawn) [Example 152, 3-(carboxymethoxy)-4-chloro-5-[3-[[(4S)-1-[[3-[[4-[1-(2,6-dioxo-3-piperidyl)-4-fluoro-3-methyl-2-oxo-benzimidazol-5-yl]piperidine-1-carbonyl]amino]phenyl]methylsulfonyl]-2,2-dimethyl-4-piperidyl]amino]phenyl]thiophene-2-carboxylic acid]
- DC50 [1]: 50 to 200 nM
- DC50 (PTPN2 (B16F10.4 cells)): 50 to 200 nM

Compound: Cn1c(=O)n(C2CCC(=O)NC2=O)c2cc(F)c(C3CCN(C(=O)Nc4cccc(CS(=O)(=O)N5CC[C@H](Nc6cccc(-c7sc(C(=O)O)c(OCC(=O)O)c7Cl)c6)CC5(C)C)c4)CC3)cc21 (stereo partly drawn) [Example 153, 3-(carboxymethoxy)-4-chloro-5-[3-[[(4S)-1-[[3-[[4-[1-(2,6-dioxo-3-piperidyl)-6-fluoro-3-methyl-2-oxo-benzimidazol-5-yl]piperidine-1-carbonyl]amino]phenyl]methylsulfonyl]-2,2-dimethyl-4-piperidyl]amino]phenyl]thiophene-2-carboxylic acid]
- DC50 [1]: 50 to 200 nM
- DC50 (PTPN2 (B16F10.4 cells)): 200 to 1000 nM

Compound: CC1(C)C[C@@H](Nc2cccc(-c3sc(C(=O)O)c(OCC(=O)O)c3Cl)c2)CCN1S(=O)(=O)Cc1cccc(NC(=O)N2CCC(c3ccc4c(c3)n(C3CC3)c(=O)n4C3CCC(=O)NC3=O)CC2)c1 (stereo partly drawn) [Example 154, 3-(carboxymethoxy)-4-chloro-5-[3-[[(4S)-1-[[3-[[4-[3-cyclopropyl-1-(2,6-dioxo-3-piperidyl)-2-oxo-benzimidazol-S-yl]piperidine-1-carbonyl]amino]phenyl]methylsulfonyl]-2,2-dimethyl-4-piperidyl]amino]phenyl]thiophene-2-carboxylic acid]
- DC50 [1]: 50 to 200 nM
- DC50 (PTPN2 (B16F10.4 cells)): 50 to 200 nM

Compound: CC1(C)C[C@@H](Nc2cccc(-c3sc(C(=O)O)c(OCC(=O)O)c3Cl)c2)CCN1S(=O)(=O)Cc1cccc(NC(=O)N2CCC(c3ccc4c(c3)n(CC(F)(F)F)c(=O)n4C3CCC(=O)NC3=O)CC2)c1 (stereo partly drawn) [Example 155, 3-(carboxymethoxy)-4-chloro-5-[3-[[(4S)-1-[[3-[[4-[1-(2,6-dioxo-3-piperidyl)-2-oxo-3-(2,2,2-trifluoroethyl)benzimidazol-5-yl]piperidine-1-carbonyl]amino]phenyl]-methylsulfonyl]-2,2-dimethyl-4-piperidyl]amino]phenyl]thiophene-2-carboxylic acid]
- DC50 [1]: 50 to 200 nM
- DC50 (PTPN2 (B16F10.4 cells)): 50 to 200 nM

Compound: CC1(C)C[C@@H](Nc2cccc(-c3sc(C(=O)O)c(OCC(=O)O)c3Cl)c2)CCN1S(=O)(=O)Cc1cccc(NC(=O)NCCCc2ccc3c4c(cccc24)C(=O)N3C2CCC(=O)NC2=O)c1 (stereo partly drawn) [Example 156, 3-(carboxymethoxy)-4-chloro-5-(3-(((4S)-1-((3-(3-(3-(1-(2,6-dioxopiperidin-3-yl)-2-oxo-1,2-dihydrobenzo[cd]indol-6-yl)propyl)ureido)benzyl)sulfonyl)-2,2-dimethylpiperidin-4-yl)amino)phenyl)thiophene-2-carboxylic acid]
- DC50 [1]: < 50 nM
- DC50 (PTPN2 (B16F10.4 cells)): < 50 nM

Compound: Cn1nc(C2CCC(=O)NC2=O)c2ccc(CCC(=O)Nc3cccc(CS(=O)(=O)N4CCC(Nc5cccc(-c6sc(C(=O)O)c(OCC(=O)O)c6Cl)c5)CC4)c3)cc21 (stereo not shown) [Example 157, 3-(carboxymethoxy)-4-chloro-5-[3-[[1-[[3-[3-[3-(2,6-dioxo-3-piperidyl)-1-methyl-indazol-6-yl]propanoylamino]phenyl]methylsulfonyl]-4-piperidyl]amino]phenyl]thiophene-2-carboxylic acid]
- DC50 [1]: 200 to 1000 nM
- DC50 (PTPN2 (B16F10.4 cells)): 200 to 1000 nM

Compound: CC1(C)C[C@@H](Nc2cccc(-c3sc(C(=O)O)c(OCC(=O)O)c3Cl)c2)CCN1S(=O)(=O)Cc1cccc(NC(=O)N2CCC(Cc3ccc4c5c(cccc35)C(=O)N4C3CCC(=O)NC3=O)CC2)c1 (stereo partly drawn) [Example 158, 3-(carboxymethoxy)-4-chloro-5-(3-(((4S)-1-((3-(4-((1-(2,6-dioxopiperidin-3-yl)-2-oxo-1,2-dihydrobenzo[cd]indol-6-yl)methyl)piperidine-1-carboxamido)benzyl)sulfonyl)-2,2-dimethylpiperidin-4-yl)amino)phenyl)thiophene-2-carboxylic acid]
- DC50 [1]: 50 to 200 nM
- DC50 (PTPN2 (B16F10.4 cells)): < 50 nM

Compound: CC1(C)C[C@@H](Nc2cccc(-c3sc(C(=O)O)c(OCC(=O)O)c3Cl)c2)CCN1S(=O)(=O)Cc1cccc(NC(=O)N2CCC(c3ccc4c(c3)n(C3CCOCC3)c(=O)n4C3CCC(=O)NC3=O)CC2)c1 (stereo partly drawn) [Example 159, 3-(carboxymethoxy)-4-chloro-5-(3-(((4S)-1-((3-(4-(1-(2,6-dioxopiperidin-3-yl)-2-oxo-3-(tetrahydro-2H-pyran-4-yl)-2,3-dihydro-1H-benzo[d]imidazol-5-yl)piperidine-1-carboxamido)benzyl)sulfonyl)-2,2-dimethylpiperidin-4-yl)amino)phenyl)thiophene-2-carboxylic acid]
- DC50 [1]: 200 to 1000 nM
- DC50 (PTPN2 (B16F10.4 cells)): 200 to 1000 nM

Compound: COCCn1c(=O)n(C2CCC(=O)NC2=O)c2ccc(C3CCN(C(=O)Nc4cccc(CS(=O)(=O)N5CC[C@H](Nc6cccc(-c7sc(C(=O)O)c(OCC(=O)O)c7Cl)c6)CC5(C)C)c4)CC3)cc21 (stereo partly drawn) [Example 160, 3-(carboxymethoxy)-4-chloro-5-(3-(((4S)-1-((3-(4-(1-(2,6-dioxopiperidin-3-yl)-3-(2-methoxyethyl)-2-oxo-2,3-dihydro-1H-benzo[d]imidazol-5-yl)piperidine-1-carboxamido)benzyl)sulfonyl)-2,2-dimethylpiperidin-4-yl)amino)phenyl)thiophene-2-carboxylic acid]
- DC50 [1]: 50 to 200 nM
- DC50 (PTPN2 (B16F10.4 cells)): 50 to 200 nM

Compound: CC1(C)C[C@@H](Nc2cccc(-c3sc(C(=O)O)c(OCC(=O)O)c3Cl)c2)CCN1S(=O)(=O)Cc1cc(NC(=O)N2CCC(c3ccc4c5c(cccc35)C(=O)N4C3CCC(=O)NC3=O)CC2)ccc1F (stereo partly drawn) [Example 161, 3-(carboxymethoxy)-4-chloro-5-[3-[[(4S)-1-[[5-[[4-[1-(2,6-dioxo-3-piperidyl)-2-oxo-benzo[cd]indol-6-yl]piperidine-1-carbonyl]amino]-2-fluoro-phenyl]methylsulfonyl]-2,2-dimethyl-4-piperidyl]amino]phenyl]thiophene-2-carboxylic acid]
- DC50 [1]: 50 to 200 nM
- DC50 (PTPN2 (B16F10.4 cells)): < 50 nM

Compound: CC1(C)C[C@H](Nc2cccc(-c3sc(C(=O)O)c(OCC(=O)O)c3Cl)c2)CCN1S(=O)(=O)Cc1cc(NC(=O)N2CCC(c3ccc4c5c(cccc35)C(=O)N4C3CCC(=O)NC3=O)CC2)ccc1F (stereo partly shown) [Example 162]
- DC50 [1]: 200 to 1000 nM
- DC50 (PTPN2 (B16F10.4 cells)): < 50 nM

Compound: CC1(C)C[C@@H](Nc2cccc(-c3sc(C(=O)O)c(OCC(=O)O)c3Cl)c2)CCN1S(=O)(=O)Cc1cccc(NC(=O)N2CCCN(c3ccc4c5c(cccc35)C(=O)N4C3CCC(=O)NC3=O)CC2)c1 (stereo partly drawn) [Example 163, 3-(carboxymethoxy)-4-chloro-5-(3-(((4S)-1-((3-(4-(1-(2,6-dioxopiperidin-3-yl)-2-oxo-1,2-dihydrobenzo[cd]indol-6-yl)-1,4-diazepane-1-carboxamido)benzyl)sulfonyl)-2,2-dimethylpiperidin-4-yl)amino)phenyl)thiophene-2-carboxylic acid]
- DC50 [1]: 50 to 200 nM
- DC50 (PTPN2 (B16F10.4 cells)): 50 to 200 nM

Compound: CC1(C)C[C@@H](Nc2cccc(-c3sc(C(=O)O)c(OCC(=O)O)c3Cl)c2)CCN1S(=O)(=O)Cc1cccc(NC(=O)[C@H]2CC[C@H](c3ccc4c5c(cccc53)C(=O)N4C3CCC(=O)NC3=O)CC2)c1 (stereo partly drawn) [Example 165, 3-(carboxymethoxy)-4-chloro-5-(3-(((4S)-1-((3-((1r,4S)-4-(1-(2,6-dioxopiperidin-3-yl)-2-oxo-1,2-dihydrobenzo[cd]indol-6-yl)cyclohexane-1-carboxamido)benzyl)sulfonyl)-2,2-dimethylpiperidin-4-yl)amino)phenyl)thiophene-2-carboxylic acid]
- DC50 [1]: < 50 nM
- DC50 (PTPN2 (B16F10.4 cells)): < 50 nM

Compound: CC1(C)C[C@@H](Nc2cccc(-c3sc(C(=O)O)c(OCC(=O)O)c3Cl)c2)CCN1S(=O)(=O)Cc1cccc(NC(=O)[C@H]2CC[C@@H](c3ccc4c5c(cccc53)C(=O)N4C3CCC(=O)NC3=O)CC2)c1 (stereo partly drawn) [Example 166, 3-(carboxymethoxy)-4-chloro-5-(3-(((4S)-1-((3-((1s,4R)-4-(1-(2,6-dioxopiperidin-3-yl)-2-oxo-1,2-dihydrobenzo[cd]indol-6-yl)cyclohexane-1-carboxamido)benzyl)sulfonyl)-2,2-dimethylpiperidin-4-yl)amino)phenyl)thiophene-2-carboxylic acid]
- DC50 [1]: 50 to 200 nM
- DC50 (PTPN2 (B16F10.4 cells)): 50 to 200 nM
